Patent US10112937B2, “P2X7 modulators and methods of use” (Janssen Pharmaceutica NV, priority 2013, dated 2018)

Molecular target: human P2X7 (Homo sapiens (Human), UniProt Q99572)
Assay: P2X7 antagonism in human PBMCs (IL-1β release after LPS + Bz-ATP, ELISA)
Assay type: cell-based
Settings: for PBMC 10 μM (% control): test compound 10 μM

human P2X7, sequence (Q99572 whole entry): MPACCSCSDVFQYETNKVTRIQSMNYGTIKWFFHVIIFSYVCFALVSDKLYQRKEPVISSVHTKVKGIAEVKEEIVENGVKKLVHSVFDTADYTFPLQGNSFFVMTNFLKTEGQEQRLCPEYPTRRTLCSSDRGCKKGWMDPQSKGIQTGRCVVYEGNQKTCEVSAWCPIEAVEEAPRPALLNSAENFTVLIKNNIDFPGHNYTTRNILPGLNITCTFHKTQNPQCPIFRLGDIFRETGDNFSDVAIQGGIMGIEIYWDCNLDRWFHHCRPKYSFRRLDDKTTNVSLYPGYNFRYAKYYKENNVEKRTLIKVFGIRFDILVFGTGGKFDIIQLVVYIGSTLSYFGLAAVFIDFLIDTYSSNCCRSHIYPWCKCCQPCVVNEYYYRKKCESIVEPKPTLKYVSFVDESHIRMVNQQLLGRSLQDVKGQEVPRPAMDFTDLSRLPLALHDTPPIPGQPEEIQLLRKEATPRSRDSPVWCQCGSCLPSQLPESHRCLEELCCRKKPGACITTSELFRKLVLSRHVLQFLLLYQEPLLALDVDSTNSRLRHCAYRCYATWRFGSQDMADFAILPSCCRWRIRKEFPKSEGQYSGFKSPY

SMILES: CC1c2ncn(-c3ccccn3)c2CCN1C(=O)c1cccc(C(F)(F)F)c1F (single isomer, unassigned) [Example 42, (4R*)-5-{[2-Fluoro-3-(trifluoromethyl)phenyl]carbonyl}-4-methyl-1-pyridin-2-yl-4,5,6,7-tetrahydro-1H-imidazo[4,5-c]pyridine]
- PBMC 10 μM (% control) (human PBMCs): 5.8 % control
- PBMC 10 μM (% control) (LPS 30 ng/ml + 0.5 mM Bz-ATP): 5.8 % control

SMILES: C[C@@H]1c2ncn(-c3ccc(F)cc3)c2CCN1C(=O)c1cccc(C(F)(F)F)c1Cl (single isomer, unassigned) [Example 46, (4R*)-5-{[2-Chloro-3-(trifluoromethyl)phenyl]carbonyl}-1-(4-fluorophenyl)-4-methyl-4,5,6,7-tetrahydro-1H-imidazo[4,5-c]pyridine]
- PBMC 10 μM (% control) (human PBMCs): 2.1 % control
- PBMC 10 μM (% control) (LPS 30 ng/ml + 0.5 mM Bz-ATP): 2.1 % control

SMILES: C[C@H]1c2ncn(-c3ccc(F)cc3)c2CCN1C(=O)c1cccc(C(F)(F)F)c1Cl (single isomer, unassigned) [Example 47]
- PBMC 10 μM (% control) (human PBMCs): −1.1 % control

SMILES: C[C@H]1c2nnn(-c3cnccn3)c2CCN1C(=O)c1cccc(C(F)(F)F)c1Cl (single isomer, unassigned) [Example 75, (4S*)-5-{[2-Chloro-3-(trifluoromethyl)phenyl]carbonyl}-4-methyl-1-pyrazin-2-yl-4,5,6,7-tetrahydro-1H-[1,2,3]triazolo[4,5-c]pyridine]
- PBMC 1 μM (% control) (human PBMCs, test compound 1 μM): 5.2 % control
- PBMC 10 μM (% control) (human PBMCs): −0.3 % control

SMILES: C[C@H]1c2nnn(-c3ncccn3)c2CCN1C(=O)c1cccc(C(F)(F)F)c1Cl (single isomer, unassigned) [Example 87, (4S*)-5-{[2-Chloro-3-(trifluoromethyl)phenyl]carbonyl}-4-methyl-1-pyrimidin-2-yl-4,5,6,7-tetrahydro-1H-[1,2,3]triazolo[4,5-c]pyridine]
- PBMC 10 μM (% control) (human PBMCs): 3.3 % control

SMILES: CC1c2nnn(-c3ncccn3)c2CCN1C(=O)c1cccc(C(F)(F)F)c1Cl (single isomer, unassigned) [Example 88, (4R*)-5-{[2-Chloro-3-(trifluoromethyl)phenyl]carbonyl}-4-methyl-1-pyrimidin-2-yl-4,5,6,7-tetrahydro-1H-[1,2,3]triazolo[4,5-c]pyridine]
- PBMC 10 μM (% control) (human PBMCs): 18.2 % control

SMILES: C[C@@H]1Cc2c(nnn2-c2ccccn2)CN1C(=O)c1cccc(C(F)(F)F)c1Cl (single isomer, unassigned) [Example 119, 5-{[2-Chloro-3-(trifluoromethyl)phenyl]carbonyl}-(R*)-6-methyl-1-pyridin-2-yl-4,5,6,7-tetrahydro-1H-[1,2,3]triazolo[4,5-c]pyridine]
- PBMC 10 μM (% control) (human PBMCs): 20.0 % control

SMILES: C[C@@H]1c2nnn(-c3cc[nH]n3)c2CCN1C(=O)c1cccc(C(F)(F)F)c1Cl (single isomer, unassigned) [Example 133, (R*)-(2-Chloro-3-(trifluoromethyl)phenyl)(4-methyl-1-(1H-pyrazol-5-yl)-6,7-dihydro-1H-[1,2,3]triazolo[4,5-c]pyridin-5(4H)-yl)methanone]
- PBMC 10 μM (% control) (human PBMCs): −0.2 % control

SMILES: C[C@@H]1c2nnn(-c3cnccn3)c2CCN1C(=O)c1ccc(F)c(Cl)c1Cl (single isomer, unassigned) [Example 143, (R*)-(2,3-Dichloro-4-fluorophenyl)(4-methyl-1-(pyrazin-2-yl)-6,7-dihydro-1H-[1,2,3]triazolo[4,5-c]pyridin-5(4H)-yl)methanone]
- PBMC 10 μM (% control) (human PBMCs): 58.0 % control

SMILES: C[C@H]1c2nnn(-c3cccc(F)n3)c2CCN1C(=O)c1cccc(C(F)(F)F)c1Cl (single isomer, unassigned) [Example 147, (S*)-(2-Chloro-3-(trifluoromethyl)phenyl)(1-(6-fluoropyridin-2-yl)-4-methyl-6,7-dihydro-1H-[1,2,3]triazolo[4,5-c]pyridin-5(4H)-yl)methanone]
- PBMC 10 μM (% control) (human PBMCs): −8.9 % control

SMILES: C[C@@H]1c2nnn(-c3cc(F)ccn3)c2CCN1C(=O)c1cccc(C(F)(F)F)c1Cl (single isomer, unassigned) [Example 148, (R*)-(2-Chloro-3-(trifluoromethyl)phenyl)(1-(4-fluoropyridin-2-yl)-4-methyl-6,7-dihydro-1H-[1,2,3]triazolo[4,5-c]pyridin-5(4H)-yl)methanone]
- PBMC 10 μM (% control) (human PBMCs): −9.6 % control

SMILES: C[C@H]1c2nnn(-c3cc(F)ccn3)c2CCN1C(=O)c1cccc(C(F)(F)F)c1Cl (single isomer, unassigned) [Example 149, (S*)-(2-Chloro-3-(trifluoromethyl)phenyl)(1-(4-fluoropyridin-2-yl)-4-methyl-6,7-dihydro-1H-[1,2,3]triazolo[4,5-c]pyridin-5(4H)-yl)methanone]
- PBMC 10 μM (% control) (human PBMCs): 3.5 % control

SMILES: C[C@H]1c2nnn(-c3ncc(F)cn3)c2CCN1C(=O)c1cccc(C(F)(F)F)c1Cl (single isomer, unassigned) [Example 157, (S*)-(2-Chloro-3-(trifluoromethyl)phenyl)(1-(5-fluoropyrimidin-2-yl)-4-methyl-6,7-dihydro-1H-[1,2,3]triazolo[4,5-c]pyridin-5(4H)-yl)methanone]
- PBMC 10 μM (% control) (human PBMCs): −1.4 % control

SMILES: C[C@H]1Cc2c(nnn2-c2ncccc2F)CN1C(=O)c1cccc(Cl)c1Cl (single isomer, unassigned) [Example 166, (6S*)-5-[(2,3-Dichlorophenyl)carbonyl]-1-(3-fluoropyridin-2-yl)-6-methyl-4,5,6,7-tetrahydro-1H-[1,2,3]triazolo[4,5-c]pyridine]
- PBMC 10 μM (% control) (human PBMCs): 0.6 % control

SMILES: C[C@@H]1Cc2c(nnn2-c2ncccc2F)CN1C(=O)c1cccc(C(F)(F)F)c1Cl (single isomer, unassigned) [Example 167, (6R*)-5-{[2-Chloro-3-(trifluoromethyl)phenyl]carbonyl}-1-(3-fluoropyridin-2-yl)-6-methyl-4,5,6,7-tetrahydro-1H-[1,2,3]triazolo[4,5-c]pyridine]
- PBMC 10 μM (% control) (human PBMCs): 4.2 % control

SMILES: C[C@H]1Cc2c(nnn2-c2ncccc2F)CN1C(=O)c1cccc(C(F)(F)F)c1Cl (single isomer, unassigned) [Example 168, (6S*)-5-{[2-Chloro-3-(trifluoromethyl)phenyl]carbonyl}-1-(3-fluoropyridin-2-yl)-6-methyl-4,5,6,7-tetrahydro-1H-[1,2,3]triazolo[4,5-c]pyridine]
- PBMC 10 μM (% control) (human PBMCs): −4.2 % control

SMILES: C[C@@H]1c2nnn(-c3ccn(C)n3)c2CCN1C(=O)c1cccc(C(F)(F)F)c1Cl (single isomer, unassigned) [Example 169, (R*)-(2-Chloro-3-(trifluoromethyl)phenyl)(4-methyl-1-(1-methyl-1H-pyrazol-3-yl)-6,7-dihydro-1H-[1,2,3]triazolo[4,5-c]pyridin-5(4H)-yl)methanone]
- PBMC 10 μM (% control) (human PBMCs): 95.0 % control

SMILES: C[C@H]1c2nnn(-c3ccn(C)n3)c2CCN1C(=O)c1cccc(C(F)(F)F)c1Cl (single isomer, unassigned) [Example 170, (S*)-(2-Chloro-3-(trifluoromethyl)phenyl)(4-methyl-1-(1-methyl-1H-pyrazol-3-yl)-6,7-dihydro-1H-[1,2,3]triazolo[4,5-c]pyridin-5(4H)-yl)methanone]
- PBMC 10 μM (% control) (human PBMCs): −5.7 % control

SMILES: C[C@H]1c2nnn(-c3ccn(CCF)n3)c2CCN1C(=O)c1cccc(C(F)(F)F)c1Cl (single isomer, unassigned) [Example 172, (S*)-(2-Chloro-3-(trifluoromethyl)phenyl)(1-(1-(2-fluoroethyl)-1H-pyrazol-3-yl)-4-methyl-6,7-dihydro-1H-[1,2,3]triazolo[4,5-c]pyridin-5(4H)-yl)methanone]
- PBMC 10 μM (% control) (human PBMCs): −6.0 % control

SMILES: C[C@H]1c2nnn(-c3ncc(F)cn3)c2CCN1C(=O)c1cccc(C(F)(F)F)c1F (single isomer, unassigned) [Example 178, (S*)-(2-fluoro-3-(trifluoromethyl)phenyl)(1-(5-fluoropyrimidin-2-yl)-4-methyl-6,7-dihydro-1H-[1,2,3]triazolo[4,5-c]pyridin-5(4H)-yl)methanone]
- PBMC 10 μM (% control) (human PBMCs): −4.7 % control
- PBMC 10 μM (% control) (LPS 30 ng/ml + 0.5 mM Bz-ATP): −4.7 % control

SMILES: Cc1cc(C)nc(-n2nnc3c2CCN(C(=O)c2cccc(C(F)(F)F)c2Cl)[C@@H]3C)n1 (single isomer, unassigned) [Example 181, (R*)-(2-chloro-3-(trifluoromethyl)phenyl)(1-(4,6-dimethylpyrimidin-2-yl)-4-methyl-6,7-dihydro-1H-[1,2,3]triazolo[4,5-c]pyridin-5(4H)-yl)methanone]
- PBMC 10 μM (% control) (human PBMCs): −0.1 % control
- PBMC 10 μM (% control) (LPS 30 ng/ml + 0.5 mM Bz-ATP): −0.1 % control

SMILES: C[C@H]1Cc2c(nnn2-c2ncc(F)cn2)CN1C(=O)c1ccnc(C(F)(F)F)c1Cl (single isomer, unassigned) [Example 183, (R*)-(3-chloro-2-(trifluoromethyl)pyridin-4-yl)(1-(5-fluoropyrimidin-2-yl)-6-methyl-6,7-dihydro-1H-[1,2,3]triazolo[4,5-c]pyridin-5(4H)-yl)methanone]
- PBMC 10 μM (% control) (human PBMCs): −1.2 % control
- PBMC 10 μM (% control) (LPS 30 ng/ml + 0.5 mM Bz-ATP): −1.2 % control

SMILES: Cc1ccnc(-n2nnc3c2CCN(C(=O)c2cccc(C(F)(F)F)c2Cl)[C@@H]3C)c1 (single isomer, unassigned) [Example 185, (R*)-(2-chloro-3-(trifluoromethyl)phenyl)(4-methyl-1-(4-methylpyridin-2-yl)-6,7-dihydro-1H-[1,2,3]triazolo[4,5-c]pyridin-5(4H)-yl)methanone]
- PBMC 10 μM (% control) (human PBMCs): −3.7 % control
- PBMC 10 μM (% control) (LPS 30 ng/ml + 0.5 mM Bz-ATP): −3.7 % control

SMILES: Cc1ccnc(-n2nnc3c2CCN(C(=O)c2cccc(C(F)(F)F)c2Cl)[C@H]3C)c1 (single isomer, unassigned) [Example 186, (S*)-(2-chloro-3-(trifluoromethyl)phenyl)(4-methyl-1-(4-methylpyridin-2-yl)-6,7-dihydro-1H-[1,2,3]triazolo[4,5-c]pyridin-5(4H)-yl)methanone]
- PBMC 10 μM (% control) (human PBMCs): −0.5 % control
- PBMC 10 μM (% control) (LPS 30 ng/ml + 0.5 mM Bz-ATP): −0.5 % control

SMILES: Cc1c(C(=O)N2Cc3nnn(-c4ncc(F)cn4)c3C[C@H]2C)ccnc1C(F)(F)F (single isomer, unassigned) [Example 187, (S*)-(1-(5-fluoropyrimidin-2-yl)-6-methyl-6,7-dihydro-1H-[1,2,3]triazolo[4,5-c]pyridin-5(4H)-yl)(3-methyl-2-(trifluoromethyl)pyridin-4-yl)methanone]
- PBMC 10 μM (% control) (human PBMCs): −0.6 % control
- PBMC 10 μM (% control) (LPS 30 ng/ml + 0.5 mM Bz-ATP): −0.6 % control
